This note sets out measurements from patent US20040014768A1, “Chromenone derivatives and their use for treating diseases in conjunction with 5-hta1receptors and/or dopamine d2 receptors” (priority 2000, published 2004).

The structures appear in SMILES notation.

One may read the melting point as the temperature of the solid-liquid transition. Turning to `COc1cc2oc(=O)c(C)c(C)c2cc1OCCN1CCN(c2cccc3[nH]ccc23)CC1.Cl.Cl`, the melting point lay in the range of 231 to 237 °C.
For `COc1cc2oc(=O)c(C)c(C)c2cc1OCCN1CCN(c2cccc3[nH]ccc23)CC1` [Example 3, 6-{2-[4-(1H-indol-4-yl)piperazin-1-yl]ethoxy}-7-methoxy-3,4-dimethylchromen-2-one], the melting point was 201 to 202 °C.
Then `COc1cc2oc(=O)c(C)c(C)c2cc1OCCN1CCN(c2cccc3cccnc23)CC1` [Example 4, 7-methoxy-3,4-dimethyl-6-[2-(4-quinolin-8-ylpiperazin-1-yl)ethoxy]chromen-2-one], with 164 to 165 °C; and `COc1cc2oc(=O)c(C)c(C)c2cc1OCCN1CCN(c2cccc3ccc(C)nc23)CC1` [Example 4, 7-methoxy-3,4-dimethyl-6-{2-[4-(2-methylquinolin-8-yl)piperazin-1-yl]-ethoxy}chromen-2-one], with 168 to 170 °C.
`COc1cc2oc(=O)c(C)c(C)c2cc1OCCCN1CCN(c2cccc3[nH]ccc23)CC1` [Example 5, 6-{3-[4-(1H-indol-4-yl)piperazin-1-yl]propoxy}-7-methoxy-3,4-dimethyl-chromen-2-one]: the melting point lay within 193 to 195 °C.
To `COc1cc2oc(=O)c(C)c(C)c2cc1OCCCN1CCN(c2cccc3cccnc23)CC1` [Example 5, 7-methoxy-3,4-dimethyl-6-[3-(4-quinolin-8-ylpiperazin-1-yl)propoxy]-chromen-2-one] belongs 225 to 228 °C.
